Measurements reported in patent US20110224276A1, “OPTICAL ISOMER OF PHENYLPROPIONIC ACID AND ITS MEDICINAL USE” (priority 2008, published 2011).

Tests used:
SD rats [1] = assay: long-term toxicity test in SD rats, thirteen-week consecutive intragastric administration and four-week convalescence; conditions: for nontoxic dosage: 13-week consecutive intragastric administration
Protocol: 2. […] The tested samples are formulated into suspensions by milling with 0.5% CMC—Na; intragastric administration (10 ml/kg) every day for consecutive 13 weeks; on each day, after administration, the general conditions of the animals are observed, and weight and amount of ingestion are determined once every week. In 24 hours after the last administration, half of rats in each tested group are fasted overnight, blood samples are withdrawn via femoral arteries, and the rats are dissected, and the indexes of blood cytology and biochemics, gloss anatomy and histopathological examination are preformed. The administration to remaining half rats is stopped, and the convalescence is observed; general conditions are observed and weight and amount of ingestion are determined once every week. After 4 weeks, the observation is complete, and the half of rats in each tested group are fasted overnight, blood samples are withdrawn via femoral arteries, and the rats are dissected, and the indexes of blood cytology and biochemics, gloss anatomy and histopathological examination are preformed.

[2] = tested on: writhing in mice induced by acetic acid; assay: writhing in mice induced by acetic acid; assay type: in vivo; conditions: for ED50: Mus musculus, read-out: ED50 (mg/kg) of inhibition of writhing; for maximum inhibitory rate (%) on mouse writhing: ig 1 h before 0.6% acetic acid ip, maximum of three dose groups (30, 10, 3 mg/kg; R 90, 30, 10 mg/kg), n=10
Protocol: For each group, the required weights of drugs are weighted, and are milled with 0.5% CMC—Na to required concentration ready-for-use.
Each group of animals is fasted for 12 h, but drinking ad libitum. At 1 hour after intragastric administration of corresponding drugs, 0.6% acetic acid (0.2 ml/per) is intraperitoneally injected, and the number of writhing of mice in 15 min after injection are recored. The mice with waist muscle repeat shrinkage, bump back, rump torsion and posterior limb stretch are used as writhing positive animals. Inhibition rates of drugs on writhing are calculated based on the following formula:
Inhibition rate (%)=[(number of writhing of the control group−number of writhing of administrated group)/number of writhing of the control group]×100%
Inhibition rate of each dose-group on writhing (%) is obtained by means of above method. Fitting data of dosage (mg/kg) and corresponding inhibition rate (%) via Microsoft EXCEL software to get a trendline, so as to obtain the half-effective inhibiting dose (ED50) of each tested group on writhing.

SD rats [3] = assay: toxicity test in SD rats, four-week consecutive intragastric administration; conditions: for animals dead during 4 weeks administration: 10 rats per group; for nontoxic dosage: four-week consecutive intragastric administration
Protocol: 2. […] The tested samples are formulated into suspensions by milling with 0.5% CMC—Na; intragastric administration every day (10 ml/kg) for consecutive 4 weeks; on each day, after administration, the general conditions of the animals are observed, and weight and amount of ingestion are determined once every week. In 24 hours after the last administration, the rats are fasted overnight, blood samples are withdrawn via femoral arteries, and the rats are dissected, and the indexes of blood cytology and biochemics, gloss anatomy and histopathological examination are preformed.

ICR mice [4] = assay: in vivo; conditions: LD50 ip compared with S
Text: (§1) Each tested group includes 5 dose-groups during the tests as follows:
(§2) Intraperitoneal injection (ip)
(§3) (3) Observed periods: 14 days.

in vivo [5] = conditions: mouse, in vivo, ip
Text: as §1, §2, §3

ICR mice [6] = assay: in vivo; conditions: LD50 ig compared with S
Text: as §1
(§4) Intragastric administration (ig)
(§5) (3) Observed periods: 14 days

in vivo [7] = conditions: mouse, in vivo, po
Text: as §1, §4, §5

Cox-2 = target: T1, Cox-2 (Homo sapiens, UniProt P35354); assay: inhibiting activity to COX-2 (TMPD colorimetric, 590 nm); assay type: biochemical; conditions: tested at 300, 100, 30, 10 μmol/L (positive control 100, 30, 10, 3)
T1 construct: purchased Cayman, USA
T1 sequence (P35354 18-604): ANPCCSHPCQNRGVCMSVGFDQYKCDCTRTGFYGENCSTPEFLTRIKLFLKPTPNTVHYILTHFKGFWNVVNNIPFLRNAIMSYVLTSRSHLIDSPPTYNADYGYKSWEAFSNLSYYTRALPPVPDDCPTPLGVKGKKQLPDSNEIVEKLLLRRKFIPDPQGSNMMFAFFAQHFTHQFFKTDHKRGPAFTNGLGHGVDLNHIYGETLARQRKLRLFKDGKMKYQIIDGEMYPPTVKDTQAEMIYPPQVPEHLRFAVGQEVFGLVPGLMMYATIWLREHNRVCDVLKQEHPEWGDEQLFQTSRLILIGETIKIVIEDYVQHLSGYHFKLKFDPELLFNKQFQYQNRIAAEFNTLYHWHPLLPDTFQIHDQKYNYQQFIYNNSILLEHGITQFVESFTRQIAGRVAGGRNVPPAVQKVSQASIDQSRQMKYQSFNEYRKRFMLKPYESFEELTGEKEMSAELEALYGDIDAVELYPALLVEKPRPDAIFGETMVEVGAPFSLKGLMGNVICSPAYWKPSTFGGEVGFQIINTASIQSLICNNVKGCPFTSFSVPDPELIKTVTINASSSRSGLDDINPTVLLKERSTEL
Protocol: 2.5.1 The Inhibiting Activity to COX-1/COX-2
(1) In 220 ul of reaction system, mixed buffer (1×), heme, COX-1/COX-2, and the compound to be tested, are sequentially added, and are incubated for 5 minutes at 25° C.;
(2) Adding chromogenic substrate (TMPD) and arachidonic acid;
(3) Carefully shaking the plate for several seconds, then incubating for 15 minutes at 25° C.;
(4) Detecting absorption value at 590 nm.
Fitting data of concentration (μmol/L) and corresponding inhibition rate (%) via Microsoft EXCEL software to get a trendline, so as to obtain the half-effective inhibiting concentration (IC50) of each tested enzyme.

[8] = tested on: auricle tumefaction of mice caused by xylene; assay: auricle tumefaction of mice caused by xylene; assay type: in vivo; conditions: 3 h after xylene
Protocol: 90 healthy Kunming species of Mus musculus albus are selected, male, weight 18˜22 g, totally 9 tested groups, and each group of 10 mice, said tested groups comprising:
At 0.5 h before modeling, groups (8) and (9) are administrated tested drugs, and other groups are administrated tested drugs at 1 h before modeling. During modeling, the right ears of mice are coated with xylene at concentration of 30 μl/per ear to inflame the ear, and the left ears are performed no treatment. Once 3 h after coating xylene, the animals are sacrificed, and two ears of each mouse are cut, and ear wafers are obtained by making holes at the same positions of ears with puncher with diameter of 8 mm, and then are weighted via an electronic balance.
The tumefaction degree refers to the weight difference of the weight of inflamed ear wafer minus non-inflamed ear wafer. The tumefaction rate tumefaction degree/the weight of normal ear wafer×100‰ The average value of the tumefaction degree and tumefaction rate of each tested group is compared, so as to obtain the ability of anti-inflammation of each tested drug.
Using Microsoft EXCEL software, the average value of tumefaction degree of each tested group and the average value of control group are analyzed by means of t-test, and P<0.05 is considered as statistically significant difference.

For `CC(C(=O)O)c1ccc2c(c1)CC(=O)c1ccccc1S2` (racemic) [RS, 10,11-dihydro-alpha-methyl-10-oxo-dibenzo[b,f]tiazem-2-acetic acid, reference compound], the “animals dead during thirteen-week administration” value (SD rats [1]; 50 mg/kg ig daily, 20 rats per group) was 2 animals, the gastrointestinal tract toxicity (SD rats [1]; 13-week ig, rats, S 50, 25, RS 50, R 400, 200, 100, R:S=6:1 200, 100, 50 mg/kg) was “produces significant gastrointestinal tract toxicity” and the nontoxic dosage (SD rats [1]; rats) was 25 mg/kg. For the same compound, the ED50 [2] was 9.2 mg/kg, the “maximum inhibitory rate (%) on mouse writhing” value (shortened to “maximum inhibitory rate (%)”) [2] was 63.6% and the “animals dead during 4 weeks administration” value (SD rats [3]; 80 mg/kg ig daily) was 2 animals. For the same compound, the gastrointestinal tract toxicity (SD rats [3]; four-week ig, rats, S 80, 40, RS 80, R 480, 240, 120, R:S=6:1 320, 160, 80 mg/kg) was “produces significant gastrointestinal tract toxicity”, the nontoxic dosage (SD rats [3]; rats) was 40 mg/kg and the “Com. Vs. S (multiple)” value (ICR mice [4]) was 1.3 multiple. The LD50 at 14 days (in vivo [5]) was 252 ± 18.9 mg/kg, the “Com. Vs. S (multiple)” value (ICR mice [6]) was 1.2 multiple and the LD50 at 14 days (in vivo [7]) was 327 ± 30.7 mg/kg. For the same compound, the IC50 (Cox-2) was 7.6 µM, the “tumefaction degree” value ([8]; 10 mg/kg ig) was 5.2 ± 2.9 mg and the “tumefaction degree” value ([8]; 20 mg/kg ig) was 3.7 ± 2.5 mg.
For `C[C@@H](C(=O)O)c1ccc2c(c1)CC(=O)c1ccccc1S2` [R, R-10,11-dihydro-alpha-methyl-10-oxo-dibenzo[b,f]tiazem-2-acetic acid], the nontoxic dosage (SD rats [1]; rats) was 200 mg/kg, the ED50 [2] was 25.4 mg/kg and the “maximum inhibitory rate (%)” value [2] was 71.3%. The nontoxic dosage (SD rats [3]; rats) was 240 mg/kg, the “Com. Vs. S (multiple)” value (ICR mice [4]) was 3.7 multiple and the LD50 at 14 days (in vivo [5]; ICR) was 744 ± 69.8 mg/kg. For the same compound, the “Com. Vs. S (multiple)” value (ICR mice [6]) was 14.9 multiple, the LD50 at 14 days (in vivo [7]; ICR) was 3990 ± 153 mg/kg and the IC50 (Cox-2) was 48.6 µM. The “tumefaction degree” value ([8]; 20 mg/kg ip) was 3.5 ± 2.0 mg, the “tumefaction degree” value ([8]; 40 mg/kg ig) was 3.8 ± 2.8 mg and the “tumefaction degree” value ([8]; 40 mg/kg ip) was 2.3 ± 1.8 mg. The “tumefaction degree” value ([8]; 80 mg/kg ig) was 2.5 ± 1.4 mg.
For `C[C@H](C(=O)O)c1ccc2c(c1)CC(=O)c1ccccc1S2` [S, S-10,11-dihydro-alpha-methyl-10-oxo-dibenzo[b,f]tiazem-2-acetic acid], the nontoxic dosage (SD rats [1]; rats) was 12.5 mg/kg, the ED50 [2] was 8.6 mg/kg and the “maximum inhibitory rate (%)” value [2] was 80.1%. The “animals dead during 4 weeks administration” value (SD rats [3]; 40 mg/kg ig daily) was “one”, the “animals dead during 4 weeks administration” value (SD rats [3]; 80 mg/kg ig daily) was “four” and the nontoxic dosage (SD rats [3]; rats) was 20 mg/kg. For the same compound, the “Com. Vs. S (multiple)” value (ICR mice [4]) was 1.0 multiple, the LD50 at 14 days (in vivo [5]; ICR) was 201 ± 14.3 mg/kg and the “Com. Vs. S (multiple)” value (ICR mice [6]) was 1.0 multiple. The LD50 at 14 days (in vivo [7]; ICR) was 268 ± 22.2 mg/kg, the IC50 (Cox-2) was 21.6 µM and the “tumefaction degree” value ([8]; 10 mg/kg ig) was 4.9 ± 2.3 mg. For the same compound, the “tumefaction degree” value ([8]; 20 mg/kg ig) was 3.1 ± 3.2 mg.
